# Test results as given in US8785445B2 (Array BioPharma Inc., priority 2008, dated 2014).
# Like-named read-outs stand apart in the source and are kept apart here.
# Target: T1, human DP2 (Homo sapiens, UniProt Q9Y5Y4)
# T1 construct: expressed in transfected cells; membranes prepared
# T1 sequence (Q9Y5Y4 1-395): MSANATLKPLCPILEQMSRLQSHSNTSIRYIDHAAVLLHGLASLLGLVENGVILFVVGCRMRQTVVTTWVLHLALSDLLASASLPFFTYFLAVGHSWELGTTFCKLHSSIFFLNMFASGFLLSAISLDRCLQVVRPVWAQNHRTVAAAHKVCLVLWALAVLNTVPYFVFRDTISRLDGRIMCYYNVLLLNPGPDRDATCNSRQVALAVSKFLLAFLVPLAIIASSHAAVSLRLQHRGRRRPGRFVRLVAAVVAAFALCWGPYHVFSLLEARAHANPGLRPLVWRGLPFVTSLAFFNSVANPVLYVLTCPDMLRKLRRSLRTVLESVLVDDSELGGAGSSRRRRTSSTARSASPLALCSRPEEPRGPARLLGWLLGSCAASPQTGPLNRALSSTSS
# Assay: DP-2 binding inhibition assay (3H-PGD2, membranes of DP2-expressing K562 cells)
# Summary of the method: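 Displacement of 3H-PGD2 was measured by filtration and scintillation counting after 60 min at room temperature, using membranes of DP2-transfected K562 cells in 0.1% BSA, 1% HSA or 4% HSA.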
# [1] = 4% HSA, read-out: EC50 (nM) 4% HSA
# [2] = 0.1% BSA, read-out: EC50 (nM) 0.1% BSA
# [3] = 1% HSA, read-out: EC50 (nM) 1% HSA
EC50 [1] [nM],EC50 [2] [nM],EC50 [3] [nM],Structure (SMILES)
80.7,–,–,"O=C(Nc1ccn(-c2ccc(Cl)cc2)n1)c1ccc(Oc2cc3c(cc2Cl)C(C(=O)O)CCO3)cc1 (centres unmarked) [Example 175, 6-chloro-7-(4-(1-(4-chlorophenyl)-1H-pyrazol-3-ylcarbamoyl)phenoxy)chroman-4-carboxylic acid]"
–,62.7,–,"Cc1cnc(NC(=O)c2ccc(Oc3cc4c(cc3C#N)C(C(=O)O)CCO4)cc2)s1 (centres unmarked) [Example 176, 6-cyano-7-(4-(5-methylthiazol-2-ylcarbamoyl)phenoxy)chroman-4-carboxylic acid]"
–,68.2,–,"Cc1csc(NC(=O)c2ccc(Oc3cc4c(cc3C#N)C(C(=O)O)CCO4)cc2)n1 (centres unmarked) [Example 177, 6-cyano-7-(4-(4-methylthiazol-2-ylcarbamoyl)phenoxy)chroman-4-carboxylic acid]"
951,–,–,"Cn1nc(C(C)(C)C)cc1NC(=O)c1ccc(Oc2cc3c(cc2Cl)C(C(=O)O)CCO3)cc1 (centres unmarked) [Example 178, 7-(4-(3-tert-butyl-1-methyl-1H-pyrazol-5-ylcarbamoyl)phenoxy)-6-chlorochroman-4-carboxylic acid]"
247,–,–,"O=C(Nc1ccn(Cc2ccc(Cl)cc2)n1)c1ccc(Oc2cc3c(cc2Cl)C(C(=O)O)CCO3)cc1 (centres unmarked) [Example 179, 6-chloro-7-(4-(1-(4-chlorobenzyl)-1H-pyrazol-3-ylcarbamoyl)phenoxy)chroman-4-carboxylic acid]"
406,–,–,"O=C(Nc1cc(-c2ccc(Cl)cc2)n[nH]1)c1ccc(Oc2cc3c(cc2Cl)C(C(=O)O)CCO3)cc1 (centres unmarked) [Example 180, 6-Chloro-7-(4-(3-(4-chlorophenyl)-1H-pyrazol-5-ylcarbamoyl)phenoxy)chroman-4-carboxylic acid]"
313,–,–,"O=C(Nc1cc(-c2ccc(F)cc2)n[nH]1)c1ccc(Oc2cc3c(cc2Cl)C(C(=O)O)CCO3)cc1 (centres unmarked) [Example 181, 6-Chloro-7-(4-(3-(4-fluorophenyl)-1H-pyrazol-5-ylcarbamoyl)phenoxy)chroman-4-carboxylic acid]"
45.8,–,–,"O=C(Nc1nc2ccc(C(F)(F)F)cc2s1)c1ccc(Oc2cc3c(cc2Cl)C(C(=O)O)CCO3)cc1 (centres unmarked) [Example 183, 6-Chloro-7-(4-(6-(trifluoromethyl)benzo[d]thiazol-2-ylcarbamoyl)phenoxy)chroman-4-carboxylic acid]"
42.1,–,–,"COc1nc(C2CC2)ccc1CCNC(=O)c1ccc(Oc2cc3c(cc2Cl)C(C(=O)O)CCO3)cc1 (centres unmarked) [Example 184, Sodium 6-Chloro-7-(4-(2-(6-cyclopropyl-2-methoxypyridin-3-yl)ethylcarbamoyl)phenoxy)chroman-4-carboxylate]"
32.6,–,–,"O=C(NCCc1ccc(C(F)(F)F)nc1C1CC1)c1ccc(Oc2cc3c(cc2Cl)C(C(=O)O)CCO3)cc1 (centres unmarked) [Example 186, Sodium 6-Chloro-7-(4-(2-(2-cyclopropyl-6-(trifluoromethyl)pyridin-3-yl)ethylcarbamoyl)phenoxy)chroman-4-carboxylate]"
45.2,–,–,"CN(C)c1nc(C2CC2)ccc1CCNC(=O)c1ccc(Oc2cc3c(cc2Cl)C(C(=O)O)CCO3)cc1 (centres unmarked) [Example 187, 6-Chloro-7-(4-(2-(6-cyclopropyl-2-(dimethylamino)pyridin-3-yl)ethylcarbamoyl)phenoxy)chroman-4-carboxylic acid]"
–,301,–,"N#Cc1cc2c(cc1Oc1ccc(C(=O)Nc3ccc4ncoc4c3)cc1)OCCC2C(=O)O (centres unmarked) [Example 188, 7-(4-(benzo[d]oxazol-6-ylcarbamoyl)phenoxy)-6-cyanochroman-4-carboxylic acid]"
–,43.3,–,"Cc1nc2ccc(NC(=O)c3ccc(Oc4cc5c(cc4C#N)C(C(=O)O)CCO5)cc3)cc2s1 (centres unmarked) [Example 189, 6-cyano-7-(4-(2-methylbenzo[d]thiazol-6-ylcarbamoyl)phenoxy) chroman-4-carboxylic acid]"
–,49.3,–,"Cc1nsc2ccc(NC(=O)c3ccc(Oc4cc5c(cc4C#N)C(C(=O)O)CCO5)cc3)cc12 (centres unmarked) [Example 190, 6-cyano-7-(4-(3-methylbenzo[d]isothiazol-5-ylcarbamoyl)phenoxy) chroman-4-carboxylic acid]"
–,41.5,137,"N#Cc1cc2c(cc1Oc1ccc(C(=O)Nc3ccc4nc(C(F)(F)F)[nH]c4c3)cc1)OCCC2C(=O)O (centres unmarked) [Example 191, 6-cyano-7-(4-(2-(trifluoromethyl)-1H-benzo[d]imidazol-6-ylcarbamoyl)phenoxy) chroman-4-carboxylic acid]"
–,492,–,"N#Cc1cc2c(cc1Oc1ccc(C(=O)Nc3ccc4[nH]ncc4c3)cc1)OCCC2C(=O)O (centres unmarked) [Example 192, 7-(4-(1H-indazol-5-ylcarbamoyl)phenoxy)-6-cyanochroman-4-carboxylic acid]"
–,36.7,–,"N#Cc1cc2c(cc1Oc1ccc(C(=O)Nc3ccc4cn[nH]c4c3)cc1)OCCC2C(=O)O (centres unmarked) [Example 193, 7-(4-(1H-indazol-6-ylcarbamoyl)phenoxy)-6-cyanochroman-4-carboxylic acid]"
–,10.7,1240,"N#Cc1cc2c(cc1Oc1ccc(C(=O)Nc3nc4ccccc4s3)cc1)OCCC2C(=O)O (centres unmarked) [Example 194, 7-(4-(benzo[d]thiazol-2-ylcarbamoyl)phenoxy)-6-cyanochroman-4-carboxylic acid]"

EC50 [1] [nM],EC50 [2] [nM],EC50 [3] [nM],Structure (SMILES)
–,12.9,194,"N#Cc1cc2c(cc1Oc1ccc(C(=O)Nc3nc4ccc(F)cc4s3)cc1)OCCC2C(=O)O (centres unmarked) [Example 195, 6-cyano-7-(4-(6-fluorobenzo[d]thiazol-2-ylcarbamoyl)phenoxy) chroman-4-carboxylic acid]"
–,11,352,N#Cc1cc2c(cc1Oc1ccc(C(=O)Nc3nc4ccc(Cl)cc4s3)cc1)OCCC2C(=O)O (centres unmarked) [Example 196]
–,9.3,146,"COc1ccc2nc(NC(=O)c3ccc(Oc4cc5c(cc4C#N)C(C(=O)O)CCO5)cc3)sc2c1 (centres unmarked) [Example 197, 6-cyano-7-(4-(6-methoxybenzo[d]thiazol-2-ylcarbamoyl)phenoxy) chroman-4-carboxylic acid]"
–,1240,–,"Cc1noc(C)c1CCNC(=O)c1ccc(Oc2cc3c(cc2C#N)C(C(=O)O)CCO3)cc1 (centres unmarked) [Example 198, 6-cyano-7-(4-(2-(3,5-dimethylisoxazol-4-yl)ethylcarbamoyl)phenoxy)chroman-4-carboxylic acid]"
–,10.8,–,N#Cc1cc2c(cc1Oc1ccc(C(=O)Nc3nc4c(Cl)cccc4s3)cc1)OCCC2C(=O)O (centres unmarked) [Example 199]
–,7.6,–,"Cc1cc2nc(NC(=O)c3ccc(Oc4cc5c(cc4C#N)C(C(=O)O)CCO5)cc3)sc2cc1C (centres unmarked) [Example 200, 6-cyano-7-(4-(5,6-dimethylbenzo[d]thiazol-2-ylcarbamoyl)phenoxy) chroman-4-carboxylic acid]"
355,5.1,–,"N#Cc1cc2c(cc1Oc1ccc(C(=O)Nc3nc4ccc(C(F)(F)F)cc4s3)cc1)OCCC2C(=O)O (centres unmarked) [Example 201, 6-cyano-7-(4-(6-(trifluoromethyl)benzo[d]thiazol-2-ylcarbamoyl)phenoxy)chroman-4-carboxylic acid]"
–,24.5,–,"N#Cc1cc2c(cc1Oc1ccc(C(=O)Nc3nc4c(F)cc(F)cc4s3)cc1)OCCC2C(=O)O (centres unmarked) [Example 202, 6-cyano-7-(4-(4,6-difluorobenzo[d]thiazol-2-ylcarbamoyl)phenoxy) chroman-4-carboxylic acid]"
–,69,–,"N#Cc1cc2c(cc1Oc1ccc(C(=O)Nc3nc4ccccc4o3)cc1)OCCC2C(=O)O (centres unmarked) [Example 203, 7-(4-(benzo[d]oxazol-2-ylcarbamoyl)phenoxy)-6-cyanochroman-4-carboxylic acid]"
3440,–,–,"N#Cc1cc2c(cc1Oc1ccc(C(=O)Nc3nnc(-c4ccc(Cl)cc4)s3)cc1)OCCC2C(=O)O (centres unmarked) [Example 204, 7-(4-(5-(4-chlorophenyl)-1,3,4-thiadiazol-2-ylcarbamoyl)phenoxy)-6-cyanochroman-4-carboxylic acid]"
96.2,–,–,"Cc1ccc(-c2csc(NC(=O)c3ccc(Oc4cc5c(cc4C#N)C(C(=O)O)CCO5)cc3)n2)cc1 (centres unmarked) [Example 205, 6-cyano-7-(4-(4-p-tolylthiazol-2-ylcarbamoyl)phenoxy) chroman-4-carboxylic acid]"
105,–,–,"O=C(Nc1nc2ccc(Cl)cc2s1)c1ccc(Oc2cc3c(cc2Cl)C(C(=O)O)CCO3)cc1 (centres unmarked) [Example 207, 6-chloro-7-(4-(6-chlorobenzo[d]thiazol-2-ylcarbamoyl)phenoxy) chroman-4-carboxylic acid]"
736,–,–,"O=C(Nc1nc2cc(Cl)ccc2o1)c1ccc(Oc2cc3c(cc2Cl)C(C(=O)O)CCO3)cc1 (centres unmarked) [Example 208, 6-chloro-7-(4-(5-chlorobenzo[d]oxazol-2-ylcarbamoyl)phenoxy) chroman-4-carboxylic acid]"
207,–,–,"O=C(Nc1ccc(-c2ccc(Cl)cc2)nn1)c1ccc(Oc2cc3c(cc2Cl)C(C(=O)O)CCO3)cc1 (centres unmarked) [Example 209, 6-chloro-7-(4-(6-(4-chlorophenyl)pyridazin-3-ylcarbamoyl)phenoxy) chroman-4-carboxylic acid]"
421,–,–,O=C(NC1CCN(c2cccc(C(F)(F)F)n2)CC1)c1ccc(Oc2cc3c(cc2Cl)C(C(=O)O)CCO3)cc1 (centres unmarked) [Example 211]
3010,–,–,"O=C(NCCc1cccn1-c1ccc(C(F)(F)F)cc1)c1ccc(Oc2cc3c(cc2Cl)C(C(=O)O)CCO3)cc1 (centres unmarked) [Example 212, 6-chloro-7-(4-(2-(1-(4-(trifluoromethyl)phenyl)-1H-pyrrol-2-yl)ethylcarbamoyl)phenoxy) chroman-4-carboxylic acid]"
188,–,–,"CCOc1ncccc1CCNC(=O)c1ccc(Oc2cc3c(cc2Cl)C(C(=O)O)CCO3)cc1 (centres unmarked) [Example 213, 6-chloro-7-(4-(2-(2-ethoxypyridin-3-yl)ethylcarbamoyl)phenoxy) chroman-4-carboxylic acid]"
